Reference: patent publication US20190365689A1, “USE OF APE/REF-1 REDOX SPECIFIC INHIBITORS FOR TREATING METASTATIC PROSTATE CANCER” (Indiana University Research and Technology Corporation, priority 2017, published 2019)

Legend:
PC-3 cells = experiment: Methylene blue assay (cell proliferation), PC-3; type: cell-based, human; conditions: PC-3, 5 days
Description: (§1) The cells were fixed and stained with methylene blue and measured via spectrophotometry. […] EC50s were compared between the drugs: * denotes p<0.05 drug EC50 versus RN7-58, while ¶ denotes p<0.05, APX3330 versus APX2009.
(§2) Methylene Blue Assay (Cell Proliferation)
(§3) Prostate cells were seeded 1,000-5000 per well (cell line/experiment-dependent) and treated with one of APX3330, APX2009 or RN7-58 for 5 days. Media was then removed and cells were fixed with methanol for 10 minutes and stained with 100 μL of 0.05% of methylene blue (LC16920-1 diluted in 1×PBS) for 1 hour. The cells were then washed 3× with water and allowed to air dry overnight. 100 μL of 0.5 N HCl was added to each well to dissolve the methylene blue stain and absorbance (@630) was measured via spectrophotometry. The percent viabilities, normalized to DMSO, were graphed and IC50 concentrations determined.
(§4) To determine if inhibition of APE1/Ref-1's redox function affects cell proliferation, prostatic cell lines were treated with increasing concentrations of redox-specific inhibitors, APX3330 and APX2009, for 5 days and cell number was measured via methylene blue assay (FIG. 2A). […] Growth IC25's and IC50's were determined and arranged in Table 1. Student's t-test was performed to verify statistical IC25 and IC50 differences between APX3330 and APX2009.

C4-2 cells = experiment: Methylene blue assay (cell proliferation), C4-2; type: cell-based, human; conditions: C4-2, 5 days
Description: as §1, §2, §3, §4

LNCaP cells = experiment: Methylene blue assay (cell proliferation), LNCaP; type: cell-based, human; conditions: 5 days
Description: as §1, §2, §3, §4

E7 cells = experiment: Methylene blue assay (cell proliferation), E7 non-cancerous prostate epithelial cells; type: cell-based; conditions: E7, 5 days
Description: as §1, §2, §3, §4

prostatic cell lines = experiment: Methylene blue assay (cell proliferation), statements across prostatic cell lines; type: cell-based, human; conditions: increasing concentrations, 5 days
Description: as §1, §2, §3, §4

survivin = experiment: Immunoblotting for survivin protein levels in prostate cancer cells; type: cell-based, human
Description: (§5) PC-3 (FIG. 3A), C4-2 (FIG. 3B), LNCaP (FIG. 3C) and E7 (FIG. 3D) cell lines were treated with DMSO, or the growth inhibitory IC25 and IC50 drug concentrations of APX3330 or APX2009 for 48 hours Immunoblotting for survivin, APE1/Ref-1 and Actin as labeled. Representative of three determinations with densitometry quantification, N=3, *-denoting p<0.05 (DMSO vs. IC25 and IC50 Drug Concentrations) within ANOVA.
FIG. 6A: C4-2 cell line was treated with DMSO or APX2009 (14 μM) for 12 hours. RNA was isolated and RT-PCR for survivin was performed with HPRT1 as the reference gene. n=6, *-denoting p<0.05 by unpaired Student's t-test. FIG. 6B: Immunoblot validation of APE1/Ref-1 and p65 Co-Immunoprecipitation (Co-IP) reactions. A 5% sample of the total input of each reaction (Input) and the total IP reaction (IP) were loaded for each reaction. Beads lacking a conjugated antibody (Mock) and generic IgG (IgG) were used as negative controls for each IP experimental reaction, APE1 antibody (top blots) and p65 (bottom blots). FIG. 6C: C4-2 cell line was treated with DMSO, APX2009 (8 and 14 μM) or PDTC (50 and 100 μM) for 72 hours and cells were fixed and methylene blue was performed. n=3, *-denoting p<0.05 (DMSO vs 8 and 14 μM APX2009) and #-denoting p<0.05 (DMSO vs. 50 and 100 μM PDTC) as assessed by ANOVA. […] Data are expressed as Relative Luciferase Units (RLU) normalized to DMSO showing the mean±SEM. n=3, *-denoting p<0.05 (DMSO vs. 14 μM APX2009) and #-denoting p<0.05 (DMSO vs. 100 μM PDTC) within unpaired Students t-test. […] Data presented are representative of three determinations with densitometry quantification, […], *-denoting p<0.05 (DMSO vs. 14 μM APX2009) and #-denoting p<0.05 (DMSO vs. 100 μM) as assessed by unpaired Student's t-test.
Prostate cells were homogenized in lysis buffer containing protease inhibitor (150 mM NaCl, 10 mM tris, 1 mM EDTA, 1 mM benzenesulfonyl fluoride, and 10 μg/ml each of aprotinin, bestatin, L-luecine, and pepstatin A) and 1% Triton X-100. Total protein concentration was determined by BCA (bicinchoninic acid) assay (Pierce, Rockford, Ill.). […]

APE1/Ref-1 = experiment: Immunoblotting for total APE1/Ref-1 protein levels in prostate cancer cells; type: cell-based, human; conditions: growth inhibitory drug concentrations, 48 hours, vs DMSO
Description: as §5
Prostate cells were homogenized in lysis buffer containing protease inhibitor (150 mM NaCl, 10 mM tris, 1 mM EDTA, 1 mM benzenesulfonyl fluoride, and 10 μg/ml each of aprotinin, bestatin, L-luecine, and pepstatin A) and 1% Triton X-100. Total protein concentration was determined by BCA (bicinchoninic acid) assay (Pierce, Rockford, Ill.). 10 μg/well of Protein were resolved by electrophoresis in 4-15% gradient polyacrylamide gels (Bio-Rad Laboratories). […] Peroxidase activity was detected via Pico chemiluminescence reagent (Pierce). Photo images were analyzed by densitometry.

C4-2 xenograft tumors = experiment: In vivo subcutaneous C4-2 xenograft tumor; set-up: species or system male athymic nude mice
Description: C4-2 xenograft tumors were treated with vehicle (Propylene Glycol Kolliphor HS15 Tween 80 (PKT)) or APX2009 (25 mg/kg, IP bid) for 5 days (n=3). Tumors were removed and processed for either immunofluorescence or immunoblotting. FIG. 8A: APE1/Ref-1 and survivin protein levels were measured using immunoblotting as labeled (Left). Data was presented graphically (Right), *-denoting p<0.05 by unpaired Student's t-Test. FIG. 8B: Hematoxylin and Eosin staining and immunofluorescence were performed using APE1/Ref-1 (red) and survivin (green) specific antibodies on vehicle and APX2009 groups. Representative images were taken. White arrows are depicting survivin nuclear staining patterns. […] ImageJ Nucleus Counter was used to quantify number of BrdU+ nuclei and total nuclei per image. n=3, *-denoting p<0.05 by unpaired Student's t-test.
Human prostate specimens or C4-2 xenograft tumors were fixed in 10% formalin, processed routinely, embedded in paraffin, and serially sectioned at 5 μm via microtome. […] The sections were analyzed by immunofluorescence. […]
2×10^6 C4-2 cells were subcutaneously implanted in the hind flank of male athymic nude mice using a 100 μl volume of 50:50 solution of Matrigel: RPMI medium. […] BrdU was injected into the animals 2 hours prior to sacrifice and tumor tissues were analyzed for survivin levels (immunofluorescence and immunoblotting) and BrdU incorporation (immunofluorescence).

NFκB = experiment: NFκB-driven luciferase assay in C4-2 cells; type: cell-based, human; conditions: C4-2, growth inhibitory IC50 concentrations (14 μM APX2009, 100 μM PDTC), 24 hours
Description: FIG. 6A: C4-2 cell line was treated with DMSO or APX2009 (14 μM) for 12 hours. RNA was isolated and RT-PCR for survivin was performed with HPRT1 as the reference gene. n=6, *-denoting p<0.05 by unpaired Student's t-test. FIG. 6B: Immunoblot validation of APE1/Ref-1 and p65 Co-Immunoprecipitation (Co-IP) reactions. A 5% sample of the total input of each reaction (Input) and the total IP reaction (IP) were loaded for each reaction. Beads lacking a conjugated antibody (Mock) and generic IgG (IgG) were used as negative controls for each IP experimental reaction, APE1 antibody (top blots) and p65 (bottom blots). FIG. 6C: C4-2 cell line was treated with DMSO, APX2009 (8 and 14 μM) or PDTC (50 and 100 μM) for 72 hours and cells were fixed and methylene blue was performed. n=3, *-denoting p<0.05 (DMSO vs 8 and 14 μM APX2009) and #-denoting p<0.05 (DMSO vs. 50 and 100 μM PDTC) as assessed by ANOVA. […] Data are expressed as Relative Luciferase Units (RLU) normalized to DMSO showing the mean±SEM. n=3, *-denoting p<0.05 (DMSO vs. 14 μM APX2009) and #-denoting p<0.05 (DMSO vs. 100 μM PDTC) within unpaired Students t-test. […] Data presented are representative of three determinations with densitometry quantification, […], *-denoting p<0.05 (DMSO vs. 14 μM APX2009) and #-denoting p<0.05 (DMSO vs. 100 μM) as assessed by unpaired Student's t-test. […]

[1] = 25% reduction in absorbance vs DMSO, in µM
[2] = 50% reduction in absorbance vs DMSO, read-out: Growth IC50

Compound	Growth IC25 (PC-3 cells; [1])	IC50 (PC-3 cells; [2])	Growth IC25 (C4-2 cells; [1])	IC50 (C4-2 cells; [2])	Growth IC25 (LNCaP cells; [1])	IC50 (LNCaP cells; [2])	Growth IC25 (E7 cells; [1])	IC50 (E7 cells; [2])	Effect on cell proliferation (prostatic cell lines)	survivin protein abundance (survivin; growth inhibitory IC50 drug concentrations, within 48 hours, vs DMSO)	survival proteins Bcl-2, Mcl-1 and survivin (survivin; prostate cell lines, immunoblotting)	total APE1/Ref-1 protein levels (APE1/Ref-1)	Total survivin protein in tumors via immunoblotting (C4-2 xenograft tumors; 25 mg/kg BID IP, 5 days, vs vehicle)	cell proliferation via BrdU staining (C4-2 xenograft tumors; prostatic tumor xenografts)	reduction in survivin protein levels (survivin; C4-2, 14 μM APX2009 / 100 μM PDTC, 48 hours)	decrease in NFκB-driven luciferase activity (NFκB)
3-[(5-(2,3-dimethoxy-6-methyl1,4-benzoquinoyl)]-2-nonyl-2-proprionic acid [APX3330]	36.0 +/− 1.0	54.7 µM	57.4 +/− 3.8	89.5 µM	43.8 +/− 4.2	71.9 µM	82.7 +/− 8.7	> 100 µM	inhibited cell proliferation in a concentration-dependent manner	significant decrease	decrease	not significantly altered	decreased	decreased		
N.S=C(S)N1CCCC1 [PDTC, Ammonium pyrrolidinedithiocarbamate, reference compound]															67%	two-fold
